Earlier results as cited in patent US20250205146A1, “GRAPHENE-BASED DRUG DELIVERY DEVICE FOR MUCOSAL AND TRANSMUCOSAL ADMINISTRATION” (SISSA - SCUOLA INTERNAZIONALE SUPERIORE DI STUDI AVANZATI, priority 2022, published 2025).

Conditions: cyclic voltammetry, depending on the electrochemical system used

In the case of Cn1c(=O)c2c(ncn2C)n(C)c1=O [caffeine], the “irreversible oxidation peak potential” value is given as “over 1.4 V”.
